In patent US7566718B2, “Amine-linked pyridyl and phenyl substituted piperazine-piperidines with CXCR3 antagonist activity” (Schering Corporation, priority 2005, dated 2009):
pIC50: −log10 of the molar value.

What follows are compounds tested against T1, human CXCR3 (N-delta 4) (Homo sapiens, UniProt P49682) (assay: Human CXCR3 (N-delta 4) scintillation proximity assay (SPA), [125I] IP-10 binding to Ba/F3-hCXCR3 membranes). Settings: IC50 rating; [125I] IP-10 displacement, human CXCR3; read-out: IC50.
T1 construct: CD8 leader (N); Flag tag; expressed in transfected cells; membrane preparation
T1 sequence (P49682 5-368 limits assumed): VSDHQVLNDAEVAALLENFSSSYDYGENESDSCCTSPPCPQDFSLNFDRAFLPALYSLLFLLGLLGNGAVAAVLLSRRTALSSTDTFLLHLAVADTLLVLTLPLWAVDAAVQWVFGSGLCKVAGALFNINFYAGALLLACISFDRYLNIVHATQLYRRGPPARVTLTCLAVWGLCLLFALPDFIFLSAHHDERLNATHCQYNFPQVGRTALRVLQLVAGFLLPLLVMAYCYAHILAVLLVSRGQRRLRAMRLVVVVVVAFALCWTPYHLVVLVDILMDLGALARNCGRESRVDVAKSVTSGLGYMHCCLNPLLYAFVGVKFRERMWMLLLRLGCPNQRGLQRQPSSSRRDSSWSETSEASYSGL
Procedure, shortened: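 Membranes from Ba/F3 cells expressing Flag-tagged hCXCR3 (N-delta 4), 2 μg/point, precoupled to WGA SPA beads. Binding of 25 pM [125I] IP-10 measured with titrated compounds, 3 hr at room temperature, in HEPES buffer with CaCl2, MgCl2, NaCl and 1.0% BSA; bound tracer read by scintillation counting.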
Work on CCNC(=O)Nc1cc(Cl)c(N2CCN(C3CCN(Cc4ccc(Cl)cc4)CC3)[C@@H](CC)C2)c(Cl)c1 [Compound 193] yielded a pIC50 of less than 7.00.
With C[C@H]1CN(c2ncc(NC(=O)C3CCCCC3)cc2Cl)CCN1C1CCN(Cc2ccc(Cl)cc2)CC1 [Compound 194] the pIC50 was less than 7.00.
CC[C@H]1CN(c2ncc(NC(=O)C3CCCCC3)cc2Cl)CCN1C1CCN(Cc2ccc(Cl)cc2F)CC1 [Compound 195] was tested, and the pIC50 was less than 7.00.
C[C@H]1CN(c2ncc(NC(=O)c3cccnc3)cc2Cl)CCN1C1CCN(Cc2ccc(Cl)cc2)CC1 [Compound 196] gave a pIC50 of less than 7.00.
For C[C@@H]1CN(C2CCN(Cc3ccc(Cl)cc3)CC2)[C@@H](C)CN1c1ncc(NC(=O)NCC(F)(F)F)cc1Cl [Compound 197], the pIC50 was less than 7.00.
In the case of C[C@H]1CN(c2ncc(NC(=O)NCc3ccccc3)cc2Cl)CCN1C1CCN(Cc2ccc(Cl)cc2)CC1 [Compound 198], the pIC50 was less than 7.00.
With C[C@H]1CN(c2ncc(NC(=O)Nc3ccc(F)cc3)cc2Cl)CCN1C1CCN(Cc2ccc(Cl)cc2)CC1 [Compound 199] the pIC50 was less than 7.00.
C[C@H]1CN(c2ncc(NC(=O)c3ccc(Cl)cc3)cc2Cl)CCN1C1CCN(Cc2ccc(Cl)cc2)CC1 [Compound 200] was tested, and the pIC50 was less than 7.00.
For CC[C@H]1CN(c2ncc([N+](=O)[O-])cc2Cl)CCN1C1CCN([C@H](CO)c2ccc(Cl)cc2)CC1 [Compound 201], the pIC50 was greater than 7.60.
In the case of CC[C@H]1CN(c2ncc(N)cc2Cl)CCN1C1CCN(Cc2ccc(Cl)cc2)CC1 [Compound 202], the pIC50 was greater than 7.60.
In the case of CC[C@H]1CN(c2ncc(N)cc2Cl)CCN1C1CCN(Cc2ccc(Br)cc2F)CC1 [Compound 203], the pIC50 was greater than 7.60.
Work on CC[C@H]1CN(c2ncc(NCCCC(F)(F)F)cc2Cl)CCN1C1CCN(Cc2ccc(Cl)cc2)CC1 [Compound 204] yielded a pIC50 of 7.00 to 7.60.
Compound CC[C@H]1CN(c2ncc(N/C(=N/C#N)NC)cc2Cl)CCN1C1CCN(Cc2ccc(Cl)cc2F)CC1 [Compound 205] has a pIC50 of 7.00 to 7.60.
Work on CC[C@H]1CN(c2ncc(N)cc2Cl)CCN1C1CCN(Cc2ccc(Cl)cc2F)CC1 [Compound 206] yielded a pIC50 of 7.00 to 7.60.
In the case of CC[C@H]1CN(c2ncc(N/C(N)=N/C#N)cc2Cl)CCN1C1CCN(Cc2ccc(Cl)cc2F)CC1 [Compound 208], the pIC50 was 7.00 to 7.60.
For CC[C@H]1CN(c2ncc(N/C(=N/C#N)NC3CC3)cc2Cl)CCN1C1CCN(Cc2ccc(Cl)cc2F)CC1 [Compound 209], the pIC50 was 7.00 to 7.60.
In the case of CC[C@H]1CN(c2ncc(-n3cccn3)cc2Cl)CCN1C1CCN(Cc2ccc(OC(F)(F)F)cc2)CC1 [Compound 210], the pIC50 was 7.00 to 7.60.
CC[C@H]1CN(c2ncc(Nc3ncccn3)cc2Cl)CCN1C1CCN(Cc2ccc(Cl)cc2F)CC1 [Compound 211] was tested, and the pIC50 was 7.00 to 7.60.
CC[C@H]1CN(c2ncc([N+](=O)[O-])cc2Cl)CCN1C1CCN(Cc2ccc(Cl)cc2F)CC1 [Compound 212] gave a pIC50 of 7.00 to 7.60.
CC[C@H]1CN(c2ncc(N(C)C)cc2Cl)CCN1C1CCN(C(CO)c2ccc(Cl)cc2)CC1 (some centres unmarked) [Compound 213] was tested, and the pIC50 was 7.00 to 7.60.
In the case of CC[C@H]1CN(c2ncc(N/C(=N/C#N)NCCO)cc2Cl)CCN1C1CCN(Cc2ccc(Cl)cc2F)CC1 [Compound 214], the pIC50 was less than 7.00.
CC[C@H]1CN(c2ncc([N+](=O)[O-])cc2Cl)CCN1C1CCN(Cc2ccc(Cl)cc2-c2nnc[nH]2)CC1 [Compound 215] showed a pIC50 of less than 7.00.
Compound CC[C@H]1CN(c2ccc([N+](=O)[O-])cc2Cl)CCN1C1CCN(Cc2ccc(Cl)cc2)CC1 [Compound 216] has a pIC50 of less than 7.00.
For C[C@@H]1CN(C2CCN(Cc3ccc(Cl)cc3F)CC2)[C@@H](C)CN1c1ncc([N+](=O)[O-])cc1Cl [Compound 217], the pIC50 was less than 7.00.
For C[C@H]1CN(c2ncc(N)cc2Cl)CCN1C1CCN(Cc2ccc(Cl)cc2)CC1 [Compound 218], the pIC50 was less than 7.00.
CC[C@H]1CN(c2nc(N)c(N)nc2Cl)CCN1C1CCN(Cc2ccc(Cl)cc2F)CC1 [Compound 219] gave a pIC50 of less than 7.00.
CC[C@H]1CN(c2cc(N)c([N+](=O)[O-])cc2Cl)CCN1C1CCN(Cc2ccc(Cl)cc2F)CC1 [Compound 220] was tested, and the pIC50 was less than 7.00.
In the case of CC[C@H]1CN(c2ncc(NC(=N)N)cc2Cl)CCN1C1CCN(Cc2ccc(Cl)cc2F)CC1 [Compound 221], the pIC50 was less than 7.00.
With CC[C@H]1CN(c2ncc(-n3cccc3)cc2Cl)CCN1C1CCN(Cc2ccc(Cl)cc2F)CC1 [Compound 222] the pIC50 was less than 7.00.
With C[C@H]1CN(c2ncc(Nc3ncccn3)cc2Cl)CCN1C1CCN(Cc2ccc(Cl)cc2F)CC1 [Compound 223] the pIC50 was less than 7.00.
In the case of C[C@H]1CN(c2ncc(N)cc2Cl)CCN1C1CCN(Cc2ccc(Cl)cc2F)CC1 [Compound 224], the pIC50 was less than 7.00.
For C[C@H]1CN(c2ncc(-n3cccn3)cc2Cl)CCN1C1CCN(Cc2ccc(Cl)cc2F)CC1 [Compound 225], the pIC50 was less than 7.00.
CC[C@H]1CN(c2cc(N)c(N)cc2Cl)CCN1C1CCN(Cc2ccc(Cl)cc2F)CC1 [Compound 226] gave a pIC50 of less than 7.00.
Compound C[C@H]1CN(c2ncc([N+](=O)[O-])cc2Cl)CCN1C1CCN(Cc2ccc(Cl)cc2F)CC1 [Compound 227] has a pIC50 of less than 7.00.
With C[C@H]1CN(c2nc(Cl)c(N)cc2Cl)CCN1C1CCN(Cc2ccc(Cl)cc2F)CC1 [Compound 228] the pIC50 was less than 7.00.
Compound CC[C@H]1CN(c2ncc(-n3ccnc3)cc2Cl)CCN1C1CCN([C@H](C(=O)OC)c2ccc(Cl)cc2)CC1 [Compound 229] has a pIC50 of less than 7.00.
CC[C@H]1CN(c2ncc([N+](=O)[O-])cc2Cl)CCN1C1CCN(Cc2ccc(Cl)cc2-c2nnc(Br)[nH]2)CC1 [Compound 230] gave a pIC50 of less than 7.00.
C[C@H]1CN(c2ncc(NN)cc2Cl)CCN1C1CCN(Cc2ccc(Cl)cc2F)CC1 [Compound 231] showed a pIC50 of less than 7.00.
For C[C@@H]1CN(C2CCN(Cc3ccc(Cl)cc3F)CC2)[C@@H](C)CN1c1ncc(N)cc1N [Compound 233], the pIC50 was less than 7.00.
CC[C@H]1CN(c2ncc(NC3=NS(=O)(=O)N=C3NC3CC3)cc2Cl)CCN1C1CCN(Cc2ccc(OC(F)(F)F)cc2)CC1 [Compound 234] was tested, and the pIC50 was greater than 7.60.
With CC[C@H]1CN(c2ncc(NC3=NS(=O)(=O)N=C3NC3CC3)cc2Cl)CCN1C1CCN(Cc2ccc(Cl)cc2F)CC1 [Compound 235] the pIC50 was greater than 7.60.
Work on CC[C@H]1CN(c2ncc(NC3=NS(=O)(=O)N=C3NC3CC3)cc2Cl)CCN1C1CCN(Cc2ccc(Cl)cc2C(=N)NO)CC1 [Compound 236] yielded a pIC50 greater than 7.60.
CC[C@H]1CN(c2ncc(NC3=NS(=O)(=O)N=C3N(C)C)cc2Cl)CCN1C1CCN(Cc2ccc(Cl)cc2F)CC1 [Compound 237] gave a pIC50 greater than 7.60.
In the case of CC[C@H]1CN(c2ncc(NC3=NS(=O)(=O)N=C3NCCO)cc2Cl)CCN1C1CCN(Cc2ccc(Cl)cc2F)CC1 [Compound 238], the pIC50 was greater than 7.60.
For CC[C@H]1CN(c2ncc(NC3=NS(=O)(=O)N=C3NCCO)cc2Cl)CCN1C1CCN(Cc2ccc(OC(F)(F)F)cc2)CC1 [Compound 239], the pIC50 was greater than 7.60.
Work on CC[C@H]1CN(c2ncc(NC3=NS(=O)(=O)N=C3NC3CC3)cc2Cl)CCN1C1CCN([C@H](CO)c2ccc(Cl)cc2)CC1 [Compound 240] yielded a pIC50 greater than 7.60.
CCCCNC1=NS(=O)(=O)N=C1Nc1cnc(N2CCN(C3CCN(Cc4ccc(Cl)cc4C(=N)NO)CC3)[C@@H](CC)C2)c(Cl)c1 [Compound 241] showed a pIC50 greater than 7.60.
Work on CC[C@H]1CN(c2ncc(NC3=NS(=O)(=O)N=C3NC3CC3)cc2Cl)CCN1C1CCN(Cc2ccc(Cl)c(F)c2)CC1 [Compound 242] yielded a pIC50 greater than 7.60.
With CC[C@H]1CN(c2ncc(NC3=NS(=O)(=O)N=C3NC(C)C)cc2Cl)CCN1C1CCN(Cc2ccc(Cl)cc2F)CC1 [Compound 243] the pIC50 was greater than 7.60.
Work on CC[C@H]1CN(c2ncc(NC3=NS(=O)(=O)N=C3NC)cc2Cl)CCN1C1CCN(Cc2ccc(Cl)cc2C(=N)NO)CC1 [Compound 244] yielded a pIC50 greater than 7.60.
